{"source": "the supplement of paper PMC10307832", "test_in_all_cases": "relative viability (nuclei count vs DMSO), 5 days (fraction); higher = more cells survive", "key": {"[1]": {"compound": "Cc1ccc(C(=O)Nc2cccc(C(F)(F)F)c2)cc1Nc1cncc(C(N)=O)c1 [ALW-II-49-7] + CC(C)C[C@H](NC(=O)[C@H](Cc1ccccc1)NC(=O)c1cnccn1)B(O)O [Bortezomib] (partner 0.002 µM)", "how_it_was_run": "(§1)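 Lung cancer cell lines in 1536-well plates got either a single drug or a fixed anchor-drug dose together with five library-drug doses (not always all listed) in √10 steps, by pin tool, on the day after seeding. Nuclei were counted after 5 days, and relative viability is the treated-to-vehicle ratio of nuclei counts. Values are medians of duplicate plates.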"}, "[2]": {"compound": "Cc1ccc(C(=O)Nc2cccc(C(F)(F)F)c2)cc1Nc1cncc(C(N)=O)c1 [ALW-II-49-7] + CC1(C)CCC(c2ccc(Cl)cc2)=C(CN2CCN(c3ccc(C(=O)NS(=O)(=O)c4ccc(N[C@H](CCN5CCOCC5)CSc5ccccc5)c(S(=O)(=O)C(F)(F)F)c4)cc3)CC2)C1 [Navitoclax] (partner 0.5 µM)", "how_it_was_run": "as §1"}, "[3]": {"compound": "Cc1ccc(C(=O)Nc2cccc(C(F)(F)F)c2)cc1Nc1cncc(C(N)=O)c1 [ALW-II-49-7] + N=C(N)NC(=N)NCCc1ccccc1 [Phenformin] (partner 250 µM)", "how_it_was_run": "as §1"}, "[4]": {"compound": "Cc1ccc(C(=O)Nc2cccc(C(F)(F)F)c2)cc1Nc1cncc(C(N)=O)c1 [ALW-II-49-7] + O=C(CCCCCCC(=O)Nc1ccccc1)NO [Vorinostat] (partner 1 µM)", "how_it_was_run": "as §1"}}}
{"cell line": "UMC-11", "values": [{"measurement": "relative viability", "setting": "[1]; first compound 0.08 µM", "result": 0.514}, {"measurement": "relative viability", "setting": "[1]; first compound 0.253 µM", "result": 0.786}, {"measurement": "relative viability", "setting": "[1]; first compound 2.53 µM", "result": 0.792}, {"measurement": "relative viability", "setting": "[1]; first compound 8 µM", "result": 0.521}, {"measurement": "relative viability", "setting": "[2]; first compound 0.08 µM", "result": 0.311}, {"measurement": "relative viability", "setting": "[2]; first compound 0.253 µM", "result": 0.345}, {"measurement": "relative viability", "setting": "[2]; first compound 2.53 µM", "result": 0.322}, {"measurement": "relative viability", "setting": "[2]; first compound 8 µM", "result": 0.335}, {"measurement": "relative viability", "setting": "[3]; first compound 0.08 µM", "result": 0.347}, {"measurement": "relative viability", "setting": "[3]; first compound 0.253 µM", "result": 0.372}, {"measurement": "relative viability", "setting": "[3]; first compound 0.8 µM", "result": 0.352}, {"measurement": "relative viability", "setting": "[3]; first compound 2.53 µM", "result": 0.304}, {"measurement": "relative viability", "setting": "[3]; first compound 8 µM", "result": 0.268}, {"measurement": "relative viability", "setting": "[4]; first compound 0.08 µM", "result": 0.36}, {"measurement": "relative viability", "setting": "[4]; first compound 0.253 µM", "result": 0.381}, {"measurement": "relative viability", "setting": "[4]; first compound 0.8 µM", "result": 0.324}, {"measurement": "relative viability", "setting": "[4]; first compound 2.53 µM", "result": 0.357}, {"measurement": "relative viability", "setting": "[4]; first compound 8 µM", "result": 0.305}]}
